Measured values published in US20240091328A1, “FORMULATIONS AND METHODS FOR MHC-I RESTRICTED EPITOPE IMMUNIZATION” (The Research Foundation for The State University of New York, priority 2021, published 2024).

Test system: AH1-specific CD8^+ T cells
Test: AH1 tetramer staining of CD8+ T cells after immunization
Format: in vivo, BALB/c mice
Settings: CPQ with 1 μg total peptide, days 0 and 7, blood day 14
Experimental: In vivo immunization: Murine studies were performed according to protocols approved by the University at Buffalo IACUC. 5-6 week-old female BALB/c mice (Charles River Laboratories, strain BALB/cAnNCrl) were immunized intramuscularly on the right hind leg. BALB/cJ mice (Jackson Laboratories) were used in this study only for DNA sequencing where indicated.
For tetramer staining, immunized mice were analyzed for the percentages of tumor Ag-specific CD8^+ T cells by a tetramer staining assay. H-2L^d-restricted AH1 ([…]) peptide was complexed with MHC-I (H-2L^d) and conjugated with PE (the NIH Tetramer core facility). 60 μL of blood incubated with the AH1 tetramer for 1 hr at 4° C. (100× dilution), then incubated with CD8a, MHC-II (IA/IE), B220, CD4, CD44 and CD62L antibodies for 30 min at 4° C. (1000× dilution). Red blood cells were lysed by cell lysis buffer for 5 mins then cells were centrifuged at 500×g for another 5 min. The cell pellets were washed twice for flow cytometry analysis. For tetramer staining of splenocytes, 1×10^6 cells were incubated with tetramer and antibodies in the same condition as blood, and then washed twice for flow cytometry analysis. Flow cytometry studies were carried out using a BD LSRFortessam X-20 cytometer. Flowjo (version 10) software was used for data analysis.

## SPSYVYHQF [AH1]
  CD8^+ T cells that were Ag specific (AH1 tet^+): did not elicit detectable amount
